Test [1] concerns the target T1, Glutaminase kidney isoform, mitochondrial (Mus musculus) (UniProt D3Z7P3).
T1 sequence (whole entry): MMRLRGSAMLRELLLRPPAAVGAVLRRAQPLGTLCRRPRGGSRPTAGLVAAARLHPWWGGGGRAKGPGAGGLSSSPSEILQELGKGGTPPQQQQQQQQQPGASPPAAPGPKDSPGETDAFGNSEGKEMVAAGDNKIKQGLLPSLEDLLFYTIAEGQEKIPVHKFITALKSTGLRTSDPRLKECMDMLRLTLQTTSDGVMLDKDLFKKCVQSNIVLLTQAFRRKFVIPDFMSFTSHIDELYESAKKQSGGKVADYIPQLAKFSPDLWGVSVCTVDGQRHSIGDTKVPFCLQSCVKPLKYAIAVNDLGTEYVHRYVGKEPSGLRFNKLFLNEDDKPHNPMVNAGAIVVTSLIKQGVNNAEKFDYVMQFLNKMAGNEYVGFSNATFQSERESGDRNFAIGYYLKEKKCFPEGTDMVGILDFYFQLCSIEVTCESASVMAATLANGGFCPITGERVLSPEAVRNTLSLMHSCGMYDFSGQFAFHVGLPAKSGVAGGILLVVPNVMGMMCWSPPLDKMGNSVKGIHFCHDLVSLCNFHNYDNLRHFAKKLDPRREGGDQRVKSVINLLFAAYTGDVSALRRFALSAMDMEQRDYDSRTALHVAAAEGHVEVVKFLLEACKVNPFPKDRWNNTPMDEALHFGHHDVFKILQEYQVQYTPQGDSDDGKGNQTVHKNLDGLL
Kind of test: Inhibition of GLS1 in mouse kidney extract at 10 mM. Type of test: tissue-based.

Test [2] addresses T1, Glutaminase kidney isoform, mitochondrial (Mus musculus). Description: Inhibition of GLS1 in mouse kidney extract at 1 mM relative to control. It is filed as tissue-based.
Test [3] shares this target. Description: Inhibition of mouse recombinant GLS1 glutaminase activity at 1 mM.
Test [4] shares this target. Description: Inhibition of mouse recombinant GLS1 relative to control. The conditions noted are these: concentration not given here.
For test [5], the target named is T2, Glutaminase kidney isoform, mitochondrial (Homo sapiens) (UniProt O94925).
T2 sequence (whole entry): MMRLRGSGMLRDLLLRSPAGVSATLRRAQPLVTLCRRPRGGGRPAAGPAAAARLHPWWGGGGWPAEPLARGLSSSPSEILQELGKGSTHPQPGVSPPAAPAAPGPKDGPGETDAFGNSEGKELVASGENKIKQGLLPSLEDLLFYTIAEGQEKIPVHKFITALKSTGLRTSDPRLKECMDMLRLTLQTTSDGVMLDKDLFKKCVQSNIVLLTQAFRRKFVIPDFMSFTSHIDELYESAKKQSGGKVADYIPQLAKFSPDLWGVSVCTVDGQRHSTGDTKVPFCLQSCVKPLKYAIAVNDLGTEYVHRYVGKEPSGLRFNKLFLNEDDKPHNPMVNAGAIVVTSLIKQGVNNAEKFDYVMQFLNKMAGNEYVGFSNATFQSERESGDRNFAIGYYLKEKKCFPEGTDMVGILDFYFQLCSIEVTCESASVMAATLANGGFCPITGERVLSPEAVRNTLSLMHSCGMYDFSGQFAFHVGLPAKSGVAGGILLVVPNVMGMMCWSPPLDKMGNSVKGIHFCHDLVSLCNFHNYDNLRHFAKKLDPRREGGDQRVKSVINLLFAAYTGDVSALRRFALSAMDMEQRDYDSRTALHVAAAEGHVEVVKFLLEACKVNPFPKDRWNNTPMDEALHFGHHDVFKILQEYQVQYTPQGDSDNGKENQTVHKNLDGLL
Kind of test: Inhibition of human recombinant GLS1 at 1 mM relative to control.

Test [6] addresses T1, Glutaminase kidney isoform, mitochondrial (Mus musculus). Description: Inhibition of GLS1 in mouse kidney extract at 10 mM relative to control. It is filed as tissue-based.
The target of test [7] is T2, Glutaminase kidney isoform, mitochondrial (Homo sapiens). Kind of test: Inhibition of human recombinant GLS1 at 10 mM relative to control.

Calls of active or inactive are those of the source. No cut-off for these calls is given here.

In general, inhibition refers to the share of the control response that was lost under treatment.

For the compound `O=C(c1cc(Cc2ccccc2)n[nH]1)N1CCCCCC1`, the inhibition result in test [1] is “inactive”.
As for `CON(C)C(=O)c1cc(Cc2ccccc2)n[nH]1`, the inhibition entry in test [1] was “inactive”.
Consider `[N-]=[N+]=CC(=O)CC[C@H](N)C(=O)O`, for which the inhibition in test [2] was found to be 65.5%; in test [4] it was 55.5%; in test [5], 84.1%. For the same compound, in test [3], the inhibition entry was “Active”.
Regarding `CNC(=O)c1cc(Cc2ccccc2)n[nH]1`, the inhibition result in test [1] was “inactive”.
In test [6], `O=C(N[C@H]1CC[C@H](O)CC1)c1cc(CCc2ccccc2)n[nH]1` had an inhibition of 58.6%.
`O=C1CCC(NC(=O)c2cc(Cc3ccccc3)n[nH]2)CC1`: in test [1], the inhibition result was “inactive”.
Regarding `O=C(N[C@H]1CC[C@H](O)CC1)c1ccc(-c2ccccc2)[nH]1`, the inhibition entry in test [1] was “inactive”.
`O=C(c1cc(Cc2ccccc2)n[nH]1)N1CCOCC1`: in test [1], the inhibition result was “inactive”.
For the compound `O=C(N[C@H]1CC[C@H](O)CC1)c1cc(-c2ccccc2)n[nH]1`, the inhibition in test [6] turned out to be 93.3%; in test [4] it was 81.4%; in test [7], 97.1%.
Consider `O=C(N[C@H]1CC[C@H](O)CC1)c1cc(-c2ccccc2)c[nH]1`, for which the inhibition result in test [1] was “inactive”.
For the compound `O=C(N[C@H]1CC[C@H](O)CC1)c1cc(Cc2ccccc2)n[nH]1`, the inhibition in test [6] came to 99.4%; in test [4], 19.7%.
As to `O=C(Nc1ccccc1)c1cc(Cc2ccccc2)n[nH]1`, in test [1], the inhibition entry was “inactive”.
Regarding `O=C(N[C@H]1CC[C@H](O)CC1)c1cc(Cc2ccc(F)cc2)n[nH]1`, the inhibition was determined as 90.1% in test [6], 73.2% in test [4] and 94.6% in test [7].
`O=C(c1cc(Cc2ccccc2)n[nH]1)N1CCCC1`: the inhibition entry in test [1] was “inactive”.
On to `O=C(c1cc(Cc2ccccc2)n[nH]1)N1CCC(O)CC1`, for which the inhibition result in test [1] was “inactive”.
`NNC(=O)c1cc(-c2ccccc2)n[nH]1` showed an inhibition in test [6] of 52.6%.
As to `O=C(c1cc(Cc2ccccc2)n[nH]1)N1CCCCC1`, in test [1], the inhibition entry is “inactive”.
Still for that read-out and setting: the same measure for `O=C(NCCO)c1cc(Cc2ccccc2)n[nH]1`: “inactive”; for `O=C(N[C@H]1CC[C@H](O)CC1)c1ncc(-c2ccccc2)[nH]1`: “Active”.
The same measure, in the same setting: to `CN(C)C(=O)c1cc(Cc2ccccc2)n[nH]1` belongs “inactive”.

For the origin of these results see ChEMBL document CHEMBL5257076, “Design, synthesis, structure-activity relationship studies, and evaluation of novel GLS1 inhibitors” (Bioorg Med Chem Lett, 2023).
